US11051515B2, “3-acyl-benzamides and their use as herbicides” (Bayer Aktiengesellschaft, priority 2017, dated 2021)

Key:
ECHCG [1] = test: Pre-emergence action against ECHCG; format: in vivo, Echinochloa crus-galli; settings: pre-emergence, dosage 320 g/ha, scored visually after 3 weeks vs untreated controls; for pest or weed control at 320 g/ha: Echinochloa crus-galli, 504 h, read-out: Pre-emergence action against ECHCG (herbicidal activity)
Description: (§1) Seeds of monocotyledonous and dicotyledonous weed plants and crop plants are laid out in sandy loam soil in wood-fiber pots and covered with soil. The compounds of the invention, formulated in the form of wettable powders (WP) or as emulsion concentrates (EC), are then applied to the surface of the covering soil in the form of an aqueous suspension or emulsion at a water application rate equating to […], with addition of 0.2% wetting agent. After the treatment, the pots are placed in a greenhouse and kept under good growth conditions for the trial plants. The damage to the test plants is scored visually after a test period of 3 weeks by comparison with untreated controls (herbicidal activity in percent (%): 100% activity=the plants have died, 0% activity=like control plants).

ABUTH [2] = test: Pre-emergence action against ABUTH; format: in vivo, Abutilon theophrasti; settings: pre-emergence, dosage 320 g/ha, scored visually after 3 weeks vs untreated controls; for pest or weed control at 320 g/ha: Abutilon theophrasti, 504 h, read-out: Pre-emergence action against ABUTH (herbicidal activity)
Description: as §1

AMARE [3] = test: Pre-emergence action against AMARE; format: in vivo, Amaranthus retroflexus; settings: pre-emergence, dosage 320 g/ha, scored visually after 3 weeks vs untreated controls; for pest or weed control at 320 g/ha: Amaranthus retroflexus, 504 h, read-out: Pre-emergence action against AMARE (herbicidal activity)
Description: as §1

MATIN [4] = test: Pre-emergence action against MATIN; format: in vivo, Matricaria inodora; settings: Dosage 320 g/ha, pre-emergence; for pest or weed control at 320 g/ha: Tripleurospermum inodorum, 504 h
Description: as §1

STEME [5] = test: Pre-emergence action against STEME; format: in vivo, Stellaria media; settings: Dosage 320 g/ha, pre-emergence; for pest or weed control at 320 g/ha: Stellaria media, 504 h
Description: as §1

VERPE [6] = test: Pre-emergence action against VERPE; format: in vivo, Veronica persica; settings: Dosage 320 g/ha, pre-emergence; for pest or weed control at 320 g/ha: Veronica persica, 504 h
Description: as §1

CYPES [7] = test: Post-emergence action against CYPES; format: in vivo, Cyperus esculentus; settings: post-emergence, dosage 80 g/ha, visual assessment about 3 weeks after treatment vs untreated controls; for pest or weed control at 80 g/ha: Cyperus esculentus, 504 h, read-out: Post-emergence action against CYPES (herbicidal action in percent)
Experimental: (§2) Seeds of monocotyledonous and dicotyledonous weed and crop plants are laid out in sandy loam soil in wood-fiber pots, covered with soil and cultivated in a greenhouse under good growth conditions. 2 to 3 weeks after sowing, the test plants are treated at the one-leaf stage. The compounds of the invention, formulated in the form of wettable powders (WP) or as emulsion concentrates (EC), are then sprayed onto the green parts of the plants in the form of an aqueous suspension or emulsion at a water application rate equating to […], with addition of 0.2% wetting agent. After the test plants have been left to stand in the greenhouse under optimal growth conditions for about 3 weeks, the action of the preparations is assessed visually in comparison to untreated controls (herbicidal action in percent (%): 100% activity=the plants have died, 0% activity=like control plants). […] At the same time, inventive compounds leave Gramineae crops such as barley, wheat, rye, millet/Sorghum, corn or rice virtually undamaged when applied post-emergence, even at high active ingredient dosages. In addition, some substances are also harmless to dicotyledonous crops such as soya, cotton, oilseed rape, sugar beet or potatoes. Some of the compounds according to the invention have high selectivity and are therefore suitable for controlling unwanted vegetation in agricultural crops by the post-emergence method. The data of Tables B18 to B34 below illustrate, in an exemplary manner, the […] herbicidal action of the compounds according to the invention, the herbicidal activity being stated in percent.

ECHCG [8] = test: Post-emergence action against ECHCG; format: in vivo, Echinochloa crus-galli; settings: post-emergence, dosage 80 g/ha, visual assessment about 3 weeks after treatment vs untreated controls; for pest or weed control at 80 g/ha: Echinochloa crus-galli, 504 h, read-out: Post-emergence action against ECHCG (herbicidal action in percent)
Experimental: as §2

SETVI [9] = test: Post-emergence action against SETVI; format: in vivo, Setaria viridis; settings: post-emergence, dosage 80 g/ha, visual assessment about 3 weeks after treatment vs untreated controls; for pest or weed control at 80 g/ha: Setaria viridis, 504 h, read-out: Post-emergence action against SETVI (herbicidal action in percent)
Experimental: as §2

ABUTH [10] = test: Post-emergence action against ABUTH; format: in vivo, Abutilon theophrasti; settings: post-emergence, dosage 80 g/ha, visual assessment about 3 weeks after treatment vs untreated controls; for pest or weed control at 80 g/ha: Abutilon theophrasti, 504 h, read-out: Post-emergence action against ABUTH (herbicidal action in percent)
Experimental: as §2

AMARE [11] = test: Post-emergence action against AMARE; format: in vivo, Amaranthus retroflexus; settings: post-emergence, dosage 80 g/ha, visual assessment about 3 weeks after treatment vs untreated controls; for pest or weed control at 80 g/ha: Amaranthus retroflexus, 504 h, read-out: Post-emergence action against AMARE (herbicidal action in percent)
Experimental: as §2

MATIN [12] = test: Post-emergence action against MATIN; format: in vivo, Matricaria inodora; settings: post-emergence, dosage 80 g/ha, visual assessment about 3 weeks after treatment vs untreated controls; for pest or weed control at 80 g/ha: Tripleurospermum inodorum, 504 h, read-out: Post-emergence action against MATIN (herbicidal action in percent)
Experimental: as §2

PHBPU [13] = test: Post-emergence action against PHBPU; format: in vivo, Pharbitis purpurea; settings: post-emergence, dosage 80 g/ha; for pest or weed control at 80 g/ha: Ipomoea purpurea, 504 h
Experimental: as §2

STEME [14] = test: Post-emergence action against STEME; format: in vivo, Stellaria media; settings: post-emergence, dosage 80 g/ha; for pest or weed control at 80 g/ha: Stellaria media, 504 h
Experimental: as §2

VIOTR [15] = test: Post-emergence action against VIOTR; format: in vivo, Viola tricolor; settings: post-emergence, dosage 80 g/ha; for pest or weed control at 80 g/ha: Viola tricolor, 504 h
Experimental: as §2

VERPE [16] = test: Post-emergence action against VERPE; format: in vivo, Veronica persica; settings: dosage 80 g/ha; for pest or weed control at 80 g/ha: Veronica persica, 504 h
Experimental: as §2

SETVI [17] = test: Pre-emergence action against SETVI; format: in vivo, Setaria viridis; settings: pre-emergence, dosage 320 g/ha, scored visually after 3 weeks vs untreated controls; for pest or weed control at 320 g/ha: Setaria viridis, 504 h, read-out: SETVI (Table B8, pre-emergence herbicidal activity)
Description: as §1

VIOTR [18] = test: Pre-emergence action against VIOTR; format: in vivo, Viola tricolor; settings: Dosage 320 g/ha, pre-emergence; for pest or weed control at 320 g/ha: Viola tricolor, 504 h
Description: as §1

ALOMY = test: Pre-emergence action against ALOMY; format: in vivo, Alopecurus myosuroides; settings: dosage 320 g/ha, pre-emergence, scored visually after 3 weeks vs untreated controls, 100% = plants have died, 0% = like control plants
Description: as §1

CYPES [19] = test: Pre-emergence action against CYPES; format: in vivo, Cyperus esculentus; settings: pre-emergence, dosage 320 g/ha, scored visually after 3 weeks vs untreated controls
Description: as §1

PHBPU [20] = test: Pre-emergence action against PHBPU; format: in vivo, Pharbitis purpurea; settings: Dosage 320 g/ha, pre-emergence
Description: as §1

Row | SMILES | pest or weed control at 320 g/ha (ECHCG [1]) | pest or weed control at 320 g/ha (ABUTH [2]) | pest or weed control at 320 g/ha (AMARE [3]) | pest or weed control at 320 g/ha (MATIN [4]) | pest or weed control at 320 g/ha (STEME [5]) | pest or weed control at 320 g/ha (VERPE [6]) | pest or weed control at 80 g/ha (CYPES [7]) | pest or weed control at 80 g/ha (ECHCG [8]) | pest or weed control at 80 g/ha (SETVI [9]) | pest or weed control at 80 g/ha (ABUTH [10]) | pest or weed control at 80 g/ha (AMARE [11]) | pest or weed control at 80 g/ha (MATIN [12]) | pest or weed control at 80 g/ha (PHBPU [13]) | pest or weed control at 80 g/ha (STEME [14]) | pest or weed control at 80 g/ha (VIOTR [15]) | pest or weed control at 80 g/ha (VERPE [16]) | pest or weed control at 320 g/ha (SETVI [17]) | pest or weed control at 320 g/ha (VIOTR [18]) | Pre-emergence action against ECHCG (herbicidal activity) (ECHCG [1]) | Pre-emergence action against ABUTH (herbicidal activity) (ABUTH [2]) | other results
1 | CC(=O)c1c(C)ccc(C(=O)Nc2nnnn2C)c1Cl [1-134] | 90% | 90% | 100% | 100% | 90% | 90% | 90% | 90% | 80% | 80% | 90% | 100% | 90% | 100% | 100% | 100% |  |  |  |  | 
2 | Cc1ccc(C(=O)Nc2nnnn2C)c(Cl)c1C(=O)C1CC1 [1-136] |  |  | 80% | 100% | 100% | 80% | 80% |  |  |  | 90% | 90% | 90% | 100% | 90% | 90% |  |  |  |  | 
3 | Cn1nnnc1NC(=O)c1ccc(C(F)(F)F)c(C(=O)C(F)(F)F)c1Cl [1-162] | 100% | 100% | 90% | 80% | 100% | 80% | 80% | 90% | 80% | 100% | 100% |  | 100% | 100% | 100% |  | 100% | 100% |  |  | 
4 | CC(C)C(=O)c1c(Cl)ccc(C(=O)Nc2nnnn2C)c1Cl [1-280] | 100% | 90% | 100% | 100% | 90% | 90% | 90% | 90% | 80% | 80% | 90% | 90% | 80% | 100% | 90% | 90% | 90% | 100% |  |  | pest or weed control at 320 g/ha (ALOMY; Alopecurus myosuroides, 504 h, read-out: Pre-emergence action against ALOMY (herbicidal activity in percent)): 90%; pest or weed control at 320 g/ha (CYPES [19]; Cyperus esculentus, 504 h, read-out: Pre-emergence action against CYPES (herbicidal activity)): 100%
5 | CCCn1nnnc1NC(=O)c1ccc(C(F)(F)F)c(C(C)=O)c1C [3-14] |  |  |  |  |  |  |  |  |  |  |  |  |  |  |  |  |  |  | 100% | 100% | Pre-emergence action against ALOMY (herbicidal activity in percent) (ALOMY): 90%; Pre-emergence action against CYPES (herbicidal activity) (CYPES [19]): 80%; SETVI (Table B8, pre-emergence herbicidal activity) (SETVI [17]): 100%; Pre-emergence action against AMARE (herbicidal activity) (AMARE [3]): 100%; Pre-emergence action against MATIN (MATIN [4]): 100%; Pre-emergence action against PHBPU (PHBPU [20]): 90%; Pre-emergence action against STEME (STEME [5]): 100%; Pre-emergence action against VIOTR (VIOTR [18]): 100%; Pre-emergence action against VERPE (VERPE [6]): 100%; Post-emergence action against CYPES (herbicidal action in percent) (CYPES [7]): 90%; Post-emergence action against ECHCG (herbicidal action in percent) (ECHCG [8]): 100%; Post-emergence action against SETVI (herbicidal action in percent) (SETVI [9]): 100%; Post-emergence action against ABUTH (herbicidal action in percent) (ABUTH [10]): 90%; Post-emergence action against AMARE (herbicidal action in percent) (AMARE [11]): 100%; Post-emergence action against MATIN (herbicidal action in percent) (MATIN [12]): 100%; Post-emergence action against PHBPU (PHBPU [13]): 90; Post-emergence action against STEME (STEME [14]): 100; Post-emergence action against VIOTR (VIOTR [15]): 100; Post-emergence action against VERPE (VERPE [16]): 80
6 | CCCn1nnnc1NC(=O)c1ccc(C)c(C(C)=O)c1Cl [3-134] |  |  |  |  |  |  |  |  |  |  |  |  |  |  |  |  |  |  | 100% | 100% | Pre-emergence action against AMARE (herbicidal activity) (AMARE [3]): 90%; Pre-emergence action against MATIN (MATIN [4]): 90%; Pre-emergence action against STEME (STEME [5]): 90%; Pre-emergence action against VIOTR (VIOTR [18]): 100%; Pre-emergence action against VERPE (VERPE [6]): 80%; Post-emergence action against CYPES (herbicidal action in percent) (CYPES [7]): 80%; Post-emergence action against ECHCG (herbicidal action in percent) (ECHCG [8]): 90%; Post-emergence action against ABUTH (herbicidal action in percent) (ABUTH [10]): 80%; Post-emergence action against AMARE (herbicidal action in percent) (AMARE [11]): 90%; Post-emergence action against MATIN (herbicidal action in percent) (MATIN [12]): 90%; Post-emergence action against PHBPU (PHBPU [13]): 90; Post-emergence action against STEME (STEME [14]): 100; Post-emergence action against VIOTR (VIOTR [15]): 90; Post-emergence action against VERPE (VERPE [16]): 90
